Assay results as given in PubChem BioAssay AID1996.
≈ marks a conversion by molar mass, not a printed value.

Conditions: buffer; pH 7.4; 200.0 µM

Row | SMILES | solubility kinetic [µg/mL]
1 | COC(=O)C1=CNC=C(C(=O)OC)C1c1cccc2ccccc12 | 2.6 (≈ 8.04 µM)
2 | Cc1ccc2c(c1)sc(=NC(=O)C1CC1)n2C | 15.5 (≈ 62.9 µM)
3 | Cc1ncc(CSc2ccc(Cl)cc2)c(CO)c1O | 14.1 (≈ 47.7 µM)
4 | CC(=O)NC(C)(CC(=O)c1ccccc1)c1ccccc1 (stereo not drawn) | > 42.2
5 | COc1ccccc1CNc1nc(C)c(C(=O)N(C)C)s1 | > 45.8
6 | Cc1ccc2c(C)c(C(=O)NCCc3ccco3)oc2c1C | 2.8 (≈ 9.42 µM)
7 | Cc1ccc2c(c1)N(Cc1ccc([N+](=O)[O-])cc1)C=NS2(=O)=O | 34.9 (≈ 105 µM)
8 | O=C(Nc1ccc2oc(=O)ccc2c1)c1ccc(-c2cccc([N+](=O)[O-])c2)o1 | 3.5 (≈ 9.3 µM)
9 | O=S(=O)(c1ccc(NCCCO)nc1)N1CCOCC1 | > 45.2
10 | O=C(NC(=S)Nc1cccc2cnccc12)c1ccccc1 | 1.2 (≈ 3.9 µM)
11 | Cc1cccc(N(CC(=O)N2CCCC2)S(C)(=O)=O)c1 | 43.5 (≈ 147 µM)
12 | O=c1oc(-c2ccc(Br)cc2)nc2ccccc12 | < 0.6
13 | CCCN1C[C@H](CSC)C[C@@H]2c3cccc4[nH]cc(c34)C[C@H]21.CS(=O)(=O)O | 2.3
14 | CC(C)COc1ccc(Cc2c(O)[nH]c(=S)[nH]c2=O)cc1 | 28.9 (≈ 94.3 µM)
15 | CCOc1cc2c(cc1OCC)C(c1ccc(F)cc1)NCC2 (stereo not drawn) | > 47.3
16 | Cc1sc2nc(SCC(=O)Nc3cccc(S(N)(=O)=O)c3)[nH]c(=O)c2c1C | 6 (≈ 14.1 µM)
17 | COc1ccccc1CNC(=O)c1[nH]c(C)c(C(C)=O)c1C | 13.3 (≈ 44.3 µM)
18 | O=C(Nc1nccs1)c1cccnc1Cl | > 36
19 | N#Cc1c(F)cccc1NCc1cccs1 | 1.3 (≈ 5.6 µM)
20 | CC1=CC(C)(C)Nc2ccc(OC(=O)CN3C(=O)c4cccc5cccc(c45)C3=O)cc21 | 56.3 (≈ 132 µM)

Row | SMILES | solubility kinetic [µg/mL]
21 | O=C(c1cc(Cl)ccc1OCc1ccccc1)N1CCOCC1 | > 49.8
22 | Cc1ccc2cc(/C=N/NC(=O)CN3CCCCC3)c(Cl)nc2c1 | > 51.7
23 | CCCCn1c(SCC(=O)NC2CC2)nc2ccccc2c1=O | 2.6 (≈ 7.84 µM)
24 | CCCN(Cc1ccccc1)C(=S)Nc1ccc(F)cc1 | 39.2 (≈ 130 µM)
25 | O=C(Nc1ccc(Cl)cc1)Nc1ccc2c(c1)OCO2 | 0.4 (≈ 1.38 µM)
26 | Cc1ccc(NC(=O)Cn2cc([N+](=O)[O-])nc2C)cc1C | 14.8 (≈ 51.3 µM)
27 | Cc1ccc(NC(=O)NC(=O)CN2CCC(C(N)=O)CC2)c(C)c1 | > 49.9
28 | Cc1ccc(S(=O)(=O)NCCC2=CCCCC2)cc1 | 23 (≈ 82.3 µM)
29 | COCC(C)NC(=S)N1CCN(c2ccccc2Cl)CC1 (stereo not drawn) | 48.5 (≈ 148 µM)
30 | Cn1ccc(=S)c2ccccc21 | 25.2 (≈ 144 µM)
31 | CC1(C)Cc2c(sc(NC(=O)/C=C/C(=O)O)c2C#N)CO1 | 41.4 (≈ 135 µM)
32 | CN(CC(=O)Nc1ccccc1Cl)C(=O)COC(=O)c1ccc(-c2ccc(O)cc2)cc1 | 3.2 (≈ 7.07 µM)
33 | Cc1csc(SCC(=O)NC(=O)C2CCCCC2)n1 | > 44.8
34 | Cc1ccc(NC(=O)CC(C)c2ccccc2)cc1S(=O)(=O)N1CCOCC1 (stereo not drawn) | 47.5 (≈ 118 µM)
35 | Cc1ccc(-c2nc(C(F)(F)F)cc(=O)[nH]2)cc1 | 18.4 (≈ 72.4 µM)
36 | CC(C)N(CC(N)=O)C(=O)c1sc2cc(F)ccc2c1Cl | 45 (≈ 137 µM)
37 | CCOc1ccccc1NC(=O)COC(=O)C1CCC1 | 39.2 (≈ 141 µM)
38 | O=C(CN1C(=O)NC2(CCCCCCC2)C1=O)NCc1ccc(F)cc1 | 42.9 (≈ 119 µM)
39 | Cn1c(O)c(C=Nc2ccc(F)cc2)c(=O)[nH]c1=O | 11.9 (≈ 45.2 µM)
40 | CN1C2=C(C(=O)CC(C)(C)C2)C(c2cccs2)C2=C1CC(C)(C)CC2=O | 32.6 (≈ 88.2 µM)

Row | SMILES | solubility kinetic [µg/mL]
41 | C[N+](C)(C)CCOC(=O)CCC(=O)OCC[N+](C)(C)C.O.[Cl-] | > 59.6
42 | O=C(Nc1cccc(O)c1)C1CC(c2c(F)cccc2Cl)=NO1 (stereo not drawn) | 29.5 (≈ 88.1 µM)
43 | Cc1cccc(NC(=O)c2cc(Cl)nc3ccccc23)n1 | 19.9 (≈ 66.8 µM)
44 | CCCC(=O)Nc1cc2c(cc1C(C)=O)OCCO2 | > 39.5
45 | O=C(Nc1ccc(Cl)cc1)N1CCOC12CCCCC2 | > 44.2
46 | O=C(Nc1ccccc1Cl)C1C(c2ccccc2)C1(Cl)Cl (stereo not drawn) | < 0.7
47 | Cc1csc(=O)n1CC(=O)Nc1nc2ccccc2s1 | > 45.8
48 | O=C(Nc1ccc(Cl)c(Cl)c1)Nc1ccon1 | 1.6 (≈ 5.88 µM)
49 | O=C(CN1CCOCC1)Nc1nc2ccc(Cl)cc2s1 | 45.8 (≈ 147 µM)
50 | O=C(c1ccc2[nH]c(=O)c(=O)[nH]c2c1)N1CCc2ccccc21 | 43 (≈ 140 µM)
51 | O=C(COC(=O)c1cccc(OC(F)F)c1)Nc1cccc(S(=O)(=O)N2CCCC2)c1 | 10.9 (≈ 24 µM)
52 | CC(SCC(=O)O)c1nc2ccccc2[nH]1 (stereo not drawn) | > 35.4
53 | CCOc1ccccc1NC(=O)c1cccc(N2C(=O)CCC2=O)c1 | > 50.8
54 | CC(NC(=O)NC(=O)c1ccc(Cl)cc1)c1ccccc1 (stereo not drawn) | 0.4 (≈ 1.32 µM)
55 | Cc1cc(C)c2c(CC(=O)NC(C)C)coc2c1 | 9.5 (≈ 38.7 µM)
56 | Cc1cccc(Cc2c(C)[nH]c(=O)c(C#N)c2C)c1 | 5.5 (≈ 21.8 µM)
57 | CCOC(=O)C1CCN(S(=O)(=O)c2c[nH]c(=O)[nH]c2=O)CC1 | > 49.7
58 | Cc1ccc(NC(=O)CCN2C(=O)c3ccccc3C2=O)c(C)c1 | 4.9 (≈ 15.2 µM)
